Test results: patent US20230150929A1, “SELECTIVE NON-CYCLIC NUCLEOTIDE ACTIVATORS FOR THE CAMP SENSOR EPAC1” (The Board of Regents of The University of Texas System, priority 2020, published 2023)

Target: T1, EPAC1-CNBD (Homo sapiens, UniProt O95398)
T1 sequence (O95398 169-318 isoform O95398-3): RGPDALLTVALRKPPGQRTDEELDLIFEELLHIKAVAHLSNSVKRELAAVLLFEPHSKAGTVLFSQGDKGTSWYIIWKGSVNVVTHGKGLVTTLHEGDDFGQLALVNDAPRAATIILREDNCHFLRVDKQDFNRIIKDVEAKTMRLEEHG
Test: 8-NBD-cAMP competition binding assay, EPAC1-CNBD
Conditions: for RFI (%) (relative fluorescence intensity), Table 1 / RFI (%) (relative fluorescence intensity), Table 4 / RFI (%) (relative fluorescence intensity), Table 3 / RFI (%) (relative fluorescence intensity), Table 2: compound 10 µM, EPAC1-CNBD 0.8 µM, 8-NBD-cAMP 62.5 nM, mean ± SEM, lower RFI = stronger binding; for EPAC1 binding potency / affinity in words: SAR comment on RFI, mostly relative to 3 or 9a

SMILES | EPAC1 binding potency / affinity in words | RFI (%) (relative fluorescence intensity), Table 4 | further results
Cc1cc(C)c(S(=O)(=O)NC(=O)CSc2nc3ccccc3c(=O)[nH]2)c(C)c1 [Compound 9i, N-(Mesitylsulfonyl)-2-((4-oxo-3,4-dihydroquinazolin-2-yl)thio)acetamide] | – | – | RFI (%) (relative fluorescence intensity), Table 1: 95 ± 4%
O=C(COc1ccc2ccccc2c1)NS(=O)(=O)c1cccc(F)c1 [Compound 25c, N-((3-Fluorophenyl)sulfonyl)-2-(naphthalen-2-yloxy)acetamide] | decreased the binding potency | 82 ± 4 | –
Cc1cc(C)c(S(=O)(=O)NC(=O)CNc2ccc3ccccc3c2)c(C)c1 [Compound 12b, N-(Mesitylsulfonyl)-2-(naphthalen-2-ylamino)acetamide] | – | – | RFI (%) (relative fluorescence intensity), Table 3: 97 ± 5%
Cc1ccc(S(=O)(=O)NC(=O)COc2ccc3[nH]ncc3c2)c(C)c1 [Compound 9s, 2-((1H-Indazol-5-yl)oxy)-N-((2,4-dimethylphenyl)sulfonyl)acetamide] | – | – | RFI (%) (relative fluorescence intensity), Table 2: 94 ± 4%
COC(=O)c1cccc(S(=O)(=O)NC(=O)COc2ccc3ccccc3c2)c1 [Compound 25ad, Methyl 3-(N-(2-(naphthalene-2-yloxy)acetyl)sulfamoyl)benzoate] | – | 71 ± 1 | –
COc1ccc(S(=O)(=O)NC(=O)COc2ccc3ccccc3c2)cc1OC [Compound 25i, N-((3,4-Dimethoxyphenyl)sulfonyl)-2-(naphthalen-2-yloxy)acetamide] | – | 50 ± 3 | –
O=C(COc1ccc2ccccc2c1)NS(=O)(=O)c1ccccc1F [Compound 25b, N-((2-Fluorophenyl)sulfonyl)-2-(naphthalen-2-yloxy)acetamide] | decreased the binding potency | 69 ± 2 | –
Cc1cc(Nc2ccc(C(F)(F)F)cn2)cc(S(=O)(=O)NC(=O)COc2ccc3ccccc3c2)c1 [Compound 25v, N-((3-Methyl-5-((5-(trifluoromethyl)pyridin-2-yl)amino)phenyl)sulfonyl)-2-(naphthalen-2-yloxy)acetamide] | – | 20 ± 3 | fold binding potency increase versus compound 3 (from RFI at 10 µM): about 3 fold
COc1ccc(OC)c(S(=O)(=O)NC(=O)COc2ccc3ccc(OC)cc3c2)c1 [Compound 25o, N-((2,5-Dimethoxyphenyl)sulfonyl)-2-((7-methoxynaphthalen-2-yl)oxy)acetamide] | – | 49 ± 4 | –
COc1cc2c(cc1OC)CN(CC(=O)NS(=O)(=O)c1c(C)cc(C)cc1C)CC2 [Compound 9k, 2-(6,7-Dimethoxy-3,4-dihydroisoquinolin-2(1H)-yl)-N-(mesitylsulfonyl)acetamide] | – | – | RFI (%) (relative fluorescence intensity), Table 1: 102 ± 5%
COc1ccc2ccc(OCC(=O)NS(=O)(=O)c3ccc([N+](=O)[O-])cc3OC)cc2c1 [Compound 25m, N-((2-Methoxy-4-nitrophenyl)sulfonyl)-2-((7-methoxynaphthalen-2-yl)oxy)acetamide] | – | 24 ± 2 | –
Cc1cc(C)c(S(=O)(=O)NC(=O)COc2ccc3cccnc3c2)c(C)c1 [Compound 9c, N-(Mesitylsulfonyl)-2-(quinolin-7-yloxy)acetamide] | no significant improvement | – | RFI (%) (relative fluorescence intensity), Table 1: 92 ± 2%
CC(=O)c1c(OCC(=O)NS(=O)(=O)c2c(C)cc(C)cc2C)ccc2ccccc12 [Compound 9d, 2-((1-Acetylnaphthalen-2-yl)oxy)-N-(mesitylsulfonyl)acetamide] | no significant improvement | – | RFI (%) (relative fluorescence intensity), Table 1: 104 ± 7%
Cc1ccc(S(=O)(=O)NC(=O)C(C)(C)Oc2ccc3ccccc3c2)c(C)c1 [Compound 12f, N ((2,4-Dimethylphenyl)sulfonyl)-2-methyl-2-(naphthalen-2-yloxy)propenamide] | partial or complete loss of binding activity | – | RFI (%) (relative fluorescence intensity), Table 3: 76 ± 3%
Cc1cc(C)c(S(=O)(=O)NCCOc2ccc3ccccc3c2)c(C)c1 [Compound 12c, 2,4,6-Trimethyl-N-(2-(naphthalen-2-yloxy)ethyl)benzenesulfonamide] | partial or complete loss of binding activity | – | RFI (%) (relative fluorescence intensity), Table 3: 105 ± 4%
O=C(COc1ccc2ccccc2c1)NS(=O)(=O)c1cccc(-c2ccccc2)c1 [Compound 25ac, N-([1,1′-Biphenyl]-3-ylsulfonyl)-2-(naphthalene-2yloxy)acetamide] | – | 35± 1 | –
Cc1cc(-c2cncc(F)c2)cc(S(=O)(=O)NC(=O)COc2ccc3ccccc3c2)c1 [Compound 25r, N-((3-(5-Fluoropyridin-3-yl)-5-methylphenyl)sulfonyl)-2-(naphthalen-2-yloxy)acetamide] | – | 36 ± 3 | –

SMILES | EPAC1 binding potency / affinity in words | RFI (%) (relative fluorescence intensity), Table 4 | further results
Cc1cc(C)cc(S(=O)(=O)NC(=O)COc2ccc3ccccc3c2)c1 [Compound 25a, N-((3,5-Dimethylphenyl)sulfonyl)-2-(naphthalen-2-yloxy)acetamide] | – | 38 ± 2 | fold binding potency increase versus compound 3 (from RFI at 10 µM): about 1.6 fold
O=C(COc1ccc2ccccc2c1)NS(=O)(=O)C1CCCCC1 [Compound 25aa, N-(Cyclohexylsulfonyl)-2-(naphthalen-2-yloxy)acetamide] | complete loss of affinity | 81±3 | –
COc1ccc2ccc(OCC(=O)NS(=O)(=O)c3c(C)cc(C)cc3C)cc2c1 [Compound 9e, N-(Mesitylsulfonyl)-2-((7-methoxynaphthalen-2-yl)oxy)acetamide] | – | – | RFI (%) (relative fluorescence intensity), Table 1: 49 ± 3%; fold improvement in binding potency compared to 9a (from RFI at 10 µM): about 1.7 fold
COc1ccc2ccc(OCC(=O)NS(=O)(=O)c3cc(C)cc(Br)c3)cc2c1 [Compound 25k, N-((3-Bromo-5-methylphenyl)sulfonyl)-2-((7-methoxynaphthalen-2-yl)oxy)acetamide] | – | 29 ± 8 | –
Cc1ccc(S(=O)(=O)NC(=O)COc2ccc3cc(F)ccc3c2)c(C)c1 [Compound 9o, 2-((6-Fluoronaphthalen-2-yl)oxy)-N-((2,4-dimethylphenyl)sulfonyl)acetamide] | – | – | RFI (%) (relative fluorescence intensity), Table 2: 55 ± 1%
Cc1cc(C)c(S(=O)(=O)NC(=O)CN2CCN(c3ccccn3)CC2)c(C)c1 [Compound 9m, N-(Mesitylsulfonyl)-2-(4-(pyridin-2-yl)piperazin-1-yl)acetamide] | – | – | RFI (%) (relative fluorescence intensity), Table 1: 119 ± 8%
O=C(COc1ccc2ccccc2c1)NS(=O)(=O)c1ccc(F)cc1 [Compound 25d, N-((4-Fluorophenyl)sulfonyl)-2-(naphthalen-2-yloxy)acetamide] | decreased the binding potency | 81 ± 4 | –
Cc1ccc(S(=O)(=O)NC(=O)COc2ccc3ccccc3c2)cc1 [Compound 25w, 2-(Naphthalen-2-yloxy)-N-tosylacetamide] | – | 44 ± 2 | –
Cc1cc(C)c(S(=O)(=O)NC(=O)COc2cccc3ccccc23)c(C)c1 [Compound 9b, N-(Mesitylsulfonyl)-2-(naphthalen-1-yloxy)acetamide] | no significant improvement | – | RFI (%) (relative fluorescence intensity), Table 1: 94 ± 5%
Cc1cc(C)c(S(=O)(=O)N2CCC(Oc3ccc4ccccc4c3)CC2)c(C)c1 [Compound 12d, 1-(Mesitylsulfonyl)-4-(naphthalen-2-yloxy)piperidine] | partial or complete loss of binding activity | – | RFI (%) (relative fluorescence intensity), Table 3: 105 ± 3%
Cc1cc(C)c(S(=O)(=O)NC(=O)CN2CCc3ccccc3C2)c(C)c1 [Compound 9j, 2-(3,4-Dihydroisoquinolin-2(1H)-yl)-N-(mesitylsulfonyl)acetamide] | – | – | RFI (%) (relative fluorescence intensity), Table 1: 102 ± 1%
COc1cccc(S(=O)(=O)NC(=O)COc2ccc3ccccc3c2)c1 [Compound 25z, N-((3-methoxyphenyl)sulfonyl)-2-(naphthalen-2-yloxy)acetamide] | – | 33 ± 3 | –
Cc1cc(C)c(S(=O)(=O)NC(=O)CN2CCn3c(nnc3C(F)(F)F)C2)c(C)c1 [Compound 9l, N-(Mesitylsulfonyl)-2-(3-(trifluoromethyl)-5,6-dihydro-[1,2,4]triazolo[4,3-a]pyrazin-7(8H)-yl)acetamide] | – | – | RFI (%) (relative fluorescence intensity), Table 1: 104 ± 2%
Cc1ccc(S(=O)(=O)NC(=O)COc2ccc3ccc(Cl)cc3c2)c(C)c1 [Compound 9p, 2-((7-Chloronaphthalen-2-yl)oxy)-N-((2,4-dimethylphenyl)sulfonyl)acetamide] | – | – | RFI (%) (relative fluorescence intensity), Table 2: 66 ± 2%
Cc1ccc(S(=O)(=O)NCCOc2ccc3ccccc3c2)c(C)c1 [Compound 12g, 2,4-Dimethyl-N-(2-(naphthalen-2-yloxy)ethyl)benzenesulfonamide] | partial or complete loss of binding activity | – | RFI (%) (relative fluorescence intensity), Table 3: 81 ± 3%
O=C(COc1ccc2ccccc2c1)NS(=O)(=O)c1ccccc1 [Compound 25y, 2-(Naphthalen-2-yloxy)-N-(phenylsulfonyl)acetamide] | – | 49 ± 2 | –
